Measured values: patent US7629318B2, “Immunosuppressant compounds, methods and uses related thereto” (priority 2002, dated 2009)
Several values for one entry are separate records, joined by “and”; a condition that tells them apart may be missing. Equal entries are not always repeated. Where two headings read alike, the source gives them in different places. Square brackets hold non-standard residues; d marks the D form. Peptide text beside a SMILES is read from it. * marks the point of attachment. N(Me)CH2CH2Ph = CN(CCc1ccccc1)*; Tic = O=C(O)[C@@H]1Cc2ccccc2CN1; Cha = N[C@@H](CC1CCCCC1)C(=O)O; X4 = OCCOCCN(CCc1ccccc1)*; Nle = CCCC[C@H](N)C(=O)O; X2 = OCCOCCN(Cc1ccccc1)*; X6 = OCCN(CCc1ccccc1)*

Tests used:
[1] = target: DR4Dw4 (DRA1*0101 DRB1*0401) (Homo sapiens, UniProt P01903+P01911, A100K/A169T/F76Y/I96L/K127E/L162R/M171V/N62H/P40V/Q125Y/R42H/S133A/S149N/S66Y/V115G/V209L/W38E); assay: Competitive binding to MHC-II protein DR4Dw4
Method: (§1) Interaction mixtures lacking the peptidomimetic compound and both peptide mimetic compound and MHC-II were used as positive and negative controls, respectively. All interaction mixtures were set up in duplicates and were incubated for 16 hours at room temperature.
(§2) After washing with PBS, 60 μl of the MHC-II-compound interaction mixtures were transferred from the interaction plate to the appropriate wells of the capture plate and incubated for 2 h at 4° C. The wells were washed six times with 200 μl/well of cooled (4 to 8° C.) 1×DELFIA wash (Wallac-ADL-GmbH, Freiburg), incubated with 100 μl of cooled Europium-streptavidin conjugate (Wallac-ADL-GmbH, Freiburg; diluted 1/1000 with DELFIA assay buffer) for 30 minutes at 4° C., again washed six times with cooled 1×DELFIA wash and, finally, incubated with 200 μl cooled DELFIA enhancement solution (Wallac-ADL-GmbH, Freiburg) for one hour at room temperature before reading the time-resolved europium fluorescence at λex Eu^3+: 340 nm and λem Eu^3+: 613 (615) nm (Wallac Victor^2 1420 Multilabel Counter, Wallac-ADL-GmbH, Freiburg).

[2] = target: DR1 (DRA1*0101 DRB1*0101) (Homo sapiens, UniProt P01903+P01911, A100R/D57E/F55L/F60I/F76Y/I96L/L162R/M171V/P40L/Q125E/R42F/V115G/Y59C); assay: Competitive binding to MHC-II protein DR1; details: Protein binding IC50 (nM) 0101, 0101
Method: as §1, §2

[3] = target: DR4Dw14 (DRA1*0101 DRB1*0404) (Homo sapiens, UniProt P01903+P01911, A100R/A169T/F76Y/I96L/K127E/L162R/M171V/N62H/P40V/Q125Y/R42H/S133A/S149N/S66Y/V209L/W38E); assay: Competitive binding to MHC-II protein DR4Dw14
Method: as §1, §2

[4] = Stability of compounds in rat blood plasma; assay type: in vitro ADME
Method: (§3) The stability of the peptidomimetic compounds was determined in rat (Charles River Laboratories, Sulzfeld), mouse (Charles River Laboratories, Sulzfeld) and human (Bayerisches Rotes Kreuz, München) blood plasma (E. R. Garrett and M. R. Gardner, J Pharmaceutical Sciences 71 (1982) 14-25).
(§4) Compound stock solutions were diluted into blood plasma to give a final compound concentration of 5 μM and the mixtures were incubated at 37° C. At 0, 6 and 24 hours 1 ml samples were drawn and the plasma proteins were precipitated by the addition of 3 ml acetonitrile p.a. and whirlmixing. The precipitate was pelleted by centrifugation at 2000 g for 5 minutes. The supernatant was evaporated off to dryness and the residue was reconstituted in 400 μl 50% acetonitrile, 0.1% TFA in water.
(§5) PBS controls were prepared for unstable compounds accordingly.

[5] = Stability of compounds in mouse blood plasma; assay type: in vitro ADME
Method: as §3, §4, §5

[6] = target: Cathepsin D (EC 3.4.23.5 from bovine spleen) (Bos taurus, UniProt P80209)
Method: The stability of the peptidomimetic compounds towards lysosomal degradation was examined by incubation with Cathepsin B1 (EC 3.4.22.1 from bovine spleen; Sigma-Aldrich, Taufkirchen; dissolved at 10000 U/l in ddH2O) and D (EC 3.4.23.5 from bovine spleen; Sigma-Aldrich, Taufkirchen; dissolved at 10000 U/l in ddH2O) for four hours at 37° C. using a compound concentration of 50 μM and an enzyme/substrate ratio of 0.4 U/μmol. The samples contained 25 ppm 4-isopropyl benzyl alcohol (IPBA; Sigma-Aldrich, Taufkirchen) as internal standard.
Assay buffer was prepared by adding 35 μl of a 1% IPBA in DMSO solution and 28 μl of a 10000 U/l Cathepsin B1 or Cathepsin D stock solution to 14 ml of 100 mM sodium acetate, 1 mM EDTA, 1 mM DTT, pH 5.00 or 100 mM sodium acetate, pH 4.50, respectively. 8.8 μl of a 5 mM (or 4.4 μl of a 10 mM) compound stock solution (in 10% DMSO/water) were placed into a 1.5 ml Eppendorf tube. The reaction was started by adding 875 μl fully supplemented assay buffer to each tube, whirlmixing and incubation at 37° C. At 0 and 4 hours 400 μl samples were taken and the enzyme was inactivated by addition of 40 μl […] TFA aq. The samples were kept frozen at −20° C. until analysis by RP-HPLC (200 μl injection volume; Nucleosil 100-5 C18, 12.5×4.6 cm; Gradient: 20-50% acetonitrile in 30 min).
Compounds co-eluting with the internal standard during RP-HPLC analysis were tested without the standard as Example 16.

[7] = target: Cathepsin B1 (EC 3.4.22.1 from bovine spleen) (Bos taurus, UniProt P07688); details: for Stability (Arbitrary units) Cath B 4 h: Cathepsin B
[8] = system: T-cell proliferation, DR14-LN; details: for Immunsupressive assays DR14-LN (Max) % Inhibition: maximal inhibition; for IC50: read-out: Immunsupressive assays DR14-LN (IC50)
[9] = Stability of compounds in human blood plasma; assay type: in vitro ADME
Method: as §3, §4, §5

[10] = 0404, read-out: Protein binding IC50 (nM) 0404
[11] = within 4 hours, 37° C., enzyme activity control

| SMILES | IC50 [1] | IC50 [2] | IC50 [3, 10] | Stability (Arbitrary units) Rat 6 h [4] | Stability (Arbitrary units) Rat 24 h [4] | Stability (Arbitrary units) Mouse 6 h [5] | Stability (Arbitrary units) Mouse 24 h [5] | Stability (Arbitrary units) Cath D 4 h [6] | Stability (Arbitrary units) Cath B 4 h [7] | Stability (Arbitrary units) Human 6 h [9] | Stability (Arbitrary units) Human 24 h [9] | further results |
| --- | --- | --- | --- | --- | --- | --- | --- | --- | --- | --- | --- | --- |
| CCCC[C@H](NC(=O)[C@@H]1Cc2ccccc2CN1C(=O)[C@H](CCCNC(=N)N)NC(=O)[C@H](CC1CCCCC1)NC(C)=O)C(=O)N(C)CCc1ccccc1 [Compound P83, Ac-Cha-Arg-Tic-Nle-N(Me)CH2CH2Ph] (Ac-[Cha]R[Tic][Nle]-{N(Me)CH2CH2Ph}) | 24 µM | 1300 nM | 11000 nM | 69 Arbitrary units | 85 Arbitrary units | 93 Arbitrary units | 58 Arbitrary units | 98 Arbitrary units | 100 Arbitrary units |  |  | Immunsupressive assays DR14-LN (Max) % Inhibition [8]: 100%; IC50 [8]: 13 µM |
| CSCC[C@H](NC(=O)[C@@H]1Cc2ccccc2CN1C(=O)[C@H](CCCNC(=N)N)NC(=O)[C@H](CC1CCCCC1)NC(C)=O)C(=O)N(CCOCCO)Cc1ccccc1 [Compound P99, Ac-Cha-Arg-Tic-Met-N(Bn)CH2CH2OCH2CH2OH] (Ac-[Cha]R[Tic]M-X2) |  | 690 nM and 560 nM | 1900 nM | 80 Arbitrary units | 62 Arbitrary units | 71 Arbitrary units | 13 Arbitrary units | 107 Arbitrary units | 106 Arbitrary units | 104 Arbitrary units |  | Immunsupressive assays DR14-LN (Max) % Inhibition [8]: 100%; IC50 [8]: 105 µM |
| CSCC[C@H](NC(=O)[C@@H]1Cc2ccccc2CN1C(=O)[C@H](CCCNC(=N)N)NC(=O)[C@H](CC1CCCCC1)NC(C)=O)C(=O)N(CCO)CCc1ccccc1 [Compound P85, Ac-Cha-Arg-Tic-Met-N(CH2CH2OH)CH2CH2Ph] (Ac-[Cha]R[Tic]M-X6) | 13 µM | 1800 nM | 31000 nM | 111 Arbitrary units | 71 Arbitrary units | 98 Arbitrary units | 57 Arbitrary units | 104 Arbitrary units | 108 Arbitrary units |  | 129 Arbitrary units |  |
| CSCC[C@H](NC(=O)[C@@H]1Cc2ccccc2CN1C(=O)[C@H](CCCNC(=N)N)NC(=O)[C@H](CC1CCCCC1)NC(C)=O)C(=O)N(C)CCc1ccccc1 [Compound P84, Ac-Cha-Arg-Tic-Met-N(Me)CH2CH2Ph] (Ac-[Cha]R[Tic]M-{N(Me)CH2CH2Ph}) |  | 900 nM | 14000 nM | 104 Arbitrary units | 99 Arbitrary units | 111 Arbitrary units | 53 Arbitrary units | 101 Arbitrary units | 69 Arbitrary units | 131 Arbitrary units | 131 Arbitrary units |  |
| CSCC[C@H](NC(=O)[C@H](C)NC(=O)[C@H](CCCN=C(N)N)NC(=O)[C@H](CC1CCCCC1)NC(C)=O)C(=O)N[C@@H](C)C(=O)N[C@@H](CO)C(=O)N[C@@H](CC(C)C)C(N)=O [Compound P3, Ac-Cha-RAMASL-NH2, reference compound] (Ac-[Cha]RAMASL-NH2) |  |  |  |  |  |  |  |  |  |  |  | degradation by Cathepsin B1 [7, 11]: completely degraded |
| CC[C@H](C)[C@H](NC(=O)CNC(=O)[C@@H](NC(=O)[C@H](Cc1ccccc1)NC(=O)[C@H](CC(C)C)NC(=O)[C@H](CO)NC(=O)[C@H](CC(N)=O)NC(=O)[C@H](C)NC(=O)[C@H](CCCCN)NC(=O)[C@@H](NC(=O)[C@H](Cc1ccc(O)cc1)NC(=O)[C@@H](N)CCC(N)=O)[C@@H](C)CC)[C@@H](C)CC)C(=O)N[C@H](C(=O)N[C@@H](CCC(=O)O)C(=O)N[C@@H](CC(C)C)C(=O)N[C@@H](CCCCN)C(=O)O)[C@@H](C)O [reference compound] (H-QYIKANSLFIGITELK-OH; N-terminus and C-terminus assumed) |  |  |  |  |  |  |  |  |  |  |  | degradation by Cathepsin D [6, 11]: completely degraded |
| CSCC[C@H](NC(=O)[C@@H]1Cc2ccccc2CN1C(=O)[C@H](CCCNC(=N)N)NC(=O)[C@H](CC1CCCCC1)NC(C)=O)C(=O)N(CCOCCO)CCc1ccccc1 [Compound P96, Ac-Cha-Arg-Tic-Met-N(CH2CH2Ph)CH2CH2OCH2CH2OH] (Ac-[Cha]R[Tic]M-X4) | 5.9 µM | 1000 nM |  |  |  |  |  | 106 Arbitrary units | 91 Arbitrary units |  |  | IC50 ([3]; Protein binding IC50 (nM) 0404, 0404): 7400 nM; Stability (Arbitrary units) Rat 6 h ([4]; rat plasma, 6 h): 83 Arbitrary units; Stability (Arbitrary units) Rat 24 h ([4]; rat plasma, 24 h): 45 Arbitrary units; Stability (Arbitrary units) Mouse 6 h ([5]; mouse plasma, 6 h): 108 Arbitrary units; Stability (Arbitrary units) Mouse 24 h ([5]; mouse plasma, 24 h): 82 Arbitrary units; Stability (Arbitrary units) Human 6 h ([9]; human plasma, 6 h): 117 Arbitrary units; Stability (Arbitrary units) Human 24 h ([9]; human plasma, 24 h): 64 Arbitrary units |
| CCCC[C@H](NC(=O)[C@@H]1Cc2ccccc2CN1C(=O)[C@H](CCCNC(=N)N)NC(=O)[C@H](CC1CCCCC1)NC(C)=O)C(=O)N(CCO)CCc1ccccc1 [Compound P81, Ac-Cha-Arg-Tic-Nle-N(CH2CH2OH)CH2CH2Ph] (Ac-[Cha]R[Tic][Nle]-X6) | 22 µM | 3300 nM | 20000 nM | 88 Arbitrary units | 76 Arbitrary units | 107 Arbitrary units | 70 Arbitrary units | 99 Arbitrary units | 99 Arbitrary units | 104 Arbitrary units | 109 Arbitrary units |  |
